This is an account of results in article PMC8142021 (International Journal for Parasitology: Drugs and Drug …, 2021).

Converted amounts (≈) assume the structure as drawn. “Also recorded” adds a separate entry of the source.

For data set [1] the following is noted: ref Vandermeulen et al., 2006; cited from earlier work.
A short description of data set [2]: Determination of aqueous solubility. Format: physicochemical. To be noted: phosphate buffer, pH 7, aqueous buffer, thermodynamic from solid.
The test system of data set [3] is L. infantum axenic amastigotes. As to the kind of experiment: Axenic amastigote assay. It is filed as cell-based, Leishmania infantum.
In data set [4] the test system is L. infantum intracellular amastigotes in U937 macrophages. In words: In vitro macrophage infection and intracellular amastigote assay. It is filed as cell-based, Leishmania infantum. The settings on record: infected U937 macrophages, 20 μM.

As usually defined, the aqueous solubility is how much of the substance goes into solution per volume. Usually thermodynamic solubility stands for solubility found after equilibrating the solid with the medium.

`C[C@@H]1[C@H](O)[C@@H](C)/C=C/C=C/C=C/C=C/C=C/C=C/C=C/[C@H](O[C@@H]2O[C@H](C)[C@@H](O)[C@H](N)[C@@H]2O)C[C@@H]2O[C@](O)(C[C@@H](O)C[C@@H](O)[C@H](O)CC[C@@H](O)C[C@@H](O)CC(=O)O[C@H]1C)C[C@H](O)[C@H]2C(=O)O` [Amphotericin B]: the aqueous solubility in data set [1] was 1 µg/mL (≈ 1.08 µM).
Regarding `COc1ccc(NS(=O)(=O)c2ccc(N)cc2)cc1OC` [Compound 26, 4-Amino-N-(3,4-dimethoxyphenyl)benzenesulfonamide], the solubility (thermodynamic) at 72 h in data set [2] is 55 µg/mL (≈ 178 µM).
For `COc1ccc(S(=O)(=O)Nc2c(C(=O)Nc3c(C(=O)O)cc(OC)c(OC)c3OC)cc(OC)c(OC)c2OC)cc1` [Compound 63B, 3,4,5-trimethoxy-2-(3,4,5-trimethoxy-2-((4-methoxyphenyl)sulfonamido)benzamido)benzoic acid], the solubility (thermodynamic) at 72 h in data set [2] amounted to 1890 µg/mL (≈ 3110 µM).
With `COc1ccc(S(=O)(=O)Nc2cc(C#N)ccc2OS(=O)(=O)c2ccc(OC)cc2)cc1` [Compound 276B, 4-cyano-2-((4-methoxyphenyl)sulfonamido)phenyl 4-methoxybenzenesulfonate], in data set [3] (IC50 cellular cytotoxicity (HeLa)/IC50 antileishmanial activity), the “Selectivity index Axenic amastigotes” value is listed as 11.5. In data set [4], the “activity against intracellular amastigotes (in words)” value (from here on “activity”) was “active”.
Regarding `COc1ccc(S(=O)(=O)N(Cc2ccccc2)c2ccc(OC)nc2)cc1` [Compound 279, N-benzyl-4-methoxy-N-(6-methoxypyridin-3-yl)benzenesulfonamide], the “activity” value in data set [4] was “inactive”.
In the case of `COc1ccc(S(=O)(=O)Nc2cc(OC)c(NC(=O)CCl)cc2OC)cc1` [Compound 129, 2-Chloro-N-(2,5-dimethoxy-4-((4-methoxyphenyl)sulfonamido)phenyl)acetamide], the “Leishmania infantum Axenic amastigotes IC50 (μM)” value in data set [3] (48 h treatment, XTT) is “sub-micromolar”. Further, in data set [4], the “activity” value was “active; also recorded: infection clearly interrupted”.
In data set [2], `COc1cc(N)c(NS(=O)(=O)c2ccc(N(C)C)cc2)cc1OC` [Compound 35, N-(2-amino-4,5-dimethoxyphenyl)-4-(dimethylamino)benzenesulfonamide] had a solubility (thermodynamic) at 72 h of 118 µg/mL (≈ 336 µM).
